Experimental data reported in patent US12653190B2, “Heteroaryl-triazole compounds as pesticides” (Bayer Aktiengesellschaft, priority 2020, dated 2026).

Tests used:
Assay type in all cases: in vivo
[1] = system: Rhipicephalus (Boophilus) microplus larvae (strain Parkhurst, resistant against synthetic pyrethroids); test: Rhipicephalus (Boophilus) microplus in-vitro contact test, larval cattle tick; settings: 5 μg/cm^2 (=500 g/ha), after 48 hours, read-out: efficacy (larvae dead or moribund)
Protocol: Rhipicephalus (Boophilus) microplus—In-Vitro Contact Tests Larval Cattle Tick (Strain Parkhurst, Resistant Against Synthetic Pyrethroids)
9 mg compound is solved in 1 mL acetone and diluted with acetone to the desired concentration. 250 μL of the test solution is filled in 25 mL glass test tubes and homogeneously distributed on the inner walls by rotation and tilting on a shaking device (2 h at 30 rpm). With a compound concentration of 900 ppm, an inner surface of 44.7 cm^2 and a homogeneous distribution, a dose of 5 μg/cm^2 is achieved.
After the solvent has evaporated, each test tube is filled with 20-50 cattle tick larvae (Rhipicephalus microplus), closed with a perforated lid and incubated in a horizontal position at 85% relative humidity and 27° C. in an incubator. After 48 hours efficacy is determined. The larvae are patted on the ground of the tubes and negative geotactic behavior is recorded.
An efficacy of 100% means all larvae are dead or moribund; 0% means no larvae are dead or moribund.

[2] = system: fall armyworm larvae (Spodoptera frugiperda); test: Spodoptera frugiperda spray test; settings: in Zea mays, 168 h
Protocol: Spodoptera frugiperda—Spray Test
(§1) • Solvent: 78.0 parts by weight acetone • 1.5 parts by weight dimethylformamide • Emulsifier: alkylarylpolyglycol ether
(§2) To produce a suitable preparation of active compound, 1 part by weight of active compound is mixed with the stated amount of solvents and is diluted with water, containing an emulsifier concentration of 1000 ppm, to the desired concentration. Further test concentrations are prepared by dilution with emulsifier containing water.
Maize (Zea mays) leaf sections are sprayed with a preparation of the active ingredient of the desired concentration. Once dry, the leaf sections are infested with fall armyworm larvae (Spodoptera frugiperda). After 7 days mortality in % is determined. 100% means all caterpillars have been killed and 0% means none of the caterpillars have been killed.

[3] = system: green peach aphid (Myzus persicae); test: Myzus persicae spray test; settings: foliar, 120 h, after 5 days, Chinese cabbage leaf disks
Protocol: Myzus persicae—Spray Test
as §1, §2
Chinese cabbage (Brassica pekinensis) leaf disks infected with all instars of the green peach aphid (Myzus persicae), are sprayed with a preparation of the active ingredient of the desired concentration.
After 5 days mortality in % is determined. 100% means all aphids have been killed and 0% means none of the aphids have been killed.

[4] = system: larvae of the banded cucumber beetle (Diabrotica balteata); test: Diabrotica balteata spray test; settings: 168 h, 100 g/ha (=32 μg/well), after 7 days, wheat seeds, read-out: efficacy (seedling growth)
Protocol: Diabrotica balteata—Spray Test
(§3) • Solvent: 78.0 parts by weight of acetone • 1.5 parts by weight of dimethylformamide • Emulsifier: alkylarylpolyglycol ether
(§4) To produce a suitable preparation of active compound, 1 part by weight of active compound is mixed with the stated amount of solvent, and the concentrate is diluted with water, containing an emulsifier concentration of 1000 ppm, to the desired concentration. Further test concentrations are prepared by dilution with emulsifier containing water.
Soaked wheat seeds (Triticum aestivum) are placed in a multiple well plate filled with agar and some water and are incubated for 1 day to germinate (5 seeds per well). The germinated wheat seeds are sprayed with a test solution containing the desired concentration of the active ingredient. Afterwards each unit is infected with 10-20 larvae of the banded cucumber beetle (Diabrotica balteata).
After 7 days efficacy in % is determined. 100% means all the seedlings have grown up like in the untreated, uninfected control; 0% means none of the seedlings have grown.

[5] = system: larvae of the southern green stink bug (Nezara viridula); test: Nezara viridula spray test; settings: 96 h, after 4 days, barley plants
Protocol: Nezara viridula—Spray Test
as §3, §4
Barley plants (Hordeum vulgare) are sprayed with a test solution containing the desired concentration of the active ingredient and are infested with larvae of the southern green stink bug (Nezara viridula).
After 4 days mortality in % is determined. 100% means all the stink bugs have been killed; 0% means none of the stink bugs have been killed.

[6] = system: adult mosquitoes Culex quinquefasciatus strain P00; test: Culex quinquefasciatus test (CULXFA surface treatment & contact assay); settings: 24 hours after contact, read-out: efficacy (mortality); for mortality at 20 mg/m2: surface concentration 20 mg/m^2, 30 minutes exposure
Protocol: Culex quinquefasciatus Test (CULXFA Surface Treatment & Contact Assay)
(§5) • Solvent: Aceton+2000 ppm rapeseed oil methyl ester (RME)
In order to produce a sufficient, active ingredient containing solution it is necessary to solve the test compound in the solvent-mix (acetone at 2 mg/ml/RME 2 000 ppm). This solution is pipetted onto a glazed tile and after evaporation of the acetone, adult mosquitoes of the species Culex Quinquefasciatus strain P00 are placed onto the dried surface. The exposure time is 30 minutes. Mortality in percent (%) is determined 24 hours after contact of the insects to the treated surface. 100% mortality means that all tested insects are dead, whereas 0% means that no insect died.

[7] = system: adult mosquitoes Aedes aegypti strain MONHEIM; test: Aedes aegypti test (AEDSAE surface treatment & contact assay); settings: 24 hours after contact, read-out: efficacy (mortality); for mortality at 4 mg/m2: surface concentration 4 mg/m^2, 30 minutes exposure; for mortality at 20 mg/m2: surface concentration 20 mg/m^2, 30 minutes exposure
Protocol: Aedes aegypti Test (AEDSAE Surface Treatment & Contact Assay)
as §5
In order to produce a sufficient, active ingredient containing solution it is necessary to solve the test compound in the solvent-mix (acetone at 2 mg/ml/RME 2000 ppm). This solution is pipetted onto a glazed tile and after evaporation of the acetone, adult mosquitoes of the species Aedes aegypti strain MONHEIM are placed onto the dried surface. The exposure time is 30 minutes.
(§6) Mortality in percent (%) is determined 24 hours after contact of the insects to the treated surface. 100% mortality means that all tested insects are dead, whereas 0% means that no insect died.

[8] = system: adult engorged female ticks (Rhipicephalus microplus); test: Rhipicephalus (Boophilus) microplus injection test; settings: 168 h, egg deposition monitored after 7 days, read-out: efficacy (infertile eggs); for pest or weed control at 4 µg/tick: 4 μg/tick injected
Protocol: Rhipicephalus (Boophilus) microplus—Iniectiontest
• Solvent: dimethyl sulfoxide
To produce a suitable preparation of active compound, 10 mg of active compound are dissolved in 0.5 mL solvent, and the concentrate is diluted with solvent to the desired concentration.
Five adult engorged female ticks (Rhipicephalus microplus) are injected with 1 μL compound solution into the abdomen. The ticks are transferred into replica plates and incubated in a climate chamber.
After 7 days egg deposition of fertile eggs is monitored. Eggs where fertility is not visible are stored in a climate chamber till hatching after about 42 days. An efficacy of 100% means all eggs are infertile; 0% means all eggs are fertile.

[9] = system: adult flies Musca domestica strain WHO-N; test: Musca domestica test (MUSCDO surface treatment & contact assay); settings: 24 hours after contact, read-out: efficacy (mortality)
Protocol: Musca domestica Test (MUSCDO Surface Treatment & Contact Assay)
as §5
In order to produce a sufficient, active ingredient containing solution it is necessary to solve the test compound in the solvent-mix (acetone at 2 mg/ml/RME 2000 ppm). This solution is pipetted onto a glazed tile and after evaporation of the acetone, adult flies of the species Musca domestica strain WHO-N are placed onto the dried surface. The exposure time is 30 minutes.
as §6

[10] = surface concentration 4 mg/m^2, 30 minutes exposure

Row | Structure (SMILES) | pest or weed control at 5 µg/cm2, 5 µg/cm2 [1] [%] | mortality at 100 g/ha [2] [%] | mortality at 100 g/ha [3] [%] | pest or weed control at 32 µg/disc, 100 g/ha [4] [%] | mortality at 500 g/ha [5] [%] | other results
1 | C[C@H](NC(=O)c1cc(OC2CC2)cc(OC(F)(F)F)c1)c1nc(C2CC2)nn1-c1ncc(C#N)s1 [Example I-65] | 100 | – | – | – | – | –
2 | Cc1nc([C@H](C)NC(=O)c2cc(Cl)cc(C(C)(C)C#N)c2)n(-c2ncc(C(=O)N(C)C)s2)n1 [Example I-40] | – | 100 | 90 | 80 | – | –
3 | Cc1nc([C@H](C)NC(=O)c2cc(Cl)nc(C(C)(C)C#N)c2)n(-c2ncc(C#N)s2)n1 [Example I-70] | – | 100 | – | 100 | 100 | –
4 | CC(C)c1cc(C(=O)N[C@@H](C)c2ncnn2-c2ccc(C#N)cn2)cc(C(C)(C)C#N)c1 [Example I-48] | 100 | 83 | – | 100 | – | –
5 | CNC(=O)c1cnc(-n2ncnc2[C@H](C)NC(=O)c2cc(OC(F)(F)F)cc(C(C)(C)C#N)c2)s1 [Example I-74] | – | 100 | 100 | 100 | 100 | mortality at 100 g/ha [5]: 100%
6 | C[C@H](NC(=O)c1cc(Cl)cc(C(C)(C)C#N)c1)c1ncnn1-c1ncc(C#N)s1 [Example I-37] | – | 100 | 90 | 100 | 100 | mortality at 20 mg/m2 [6]: 80 to 100%
7 | C[C@H](NC(=O)c1cc(OC(F)(F)F)cc(C(C)(C)C#N)c1)c1ncnn1-c1cnc(C#N)cn1 [Example I-56] | – | 100 | 90 | 100 | 100 | mortality at 100 g/ha [5]: 90%; mortality at 4 mg/m2 [7]: 80 to 100%; mortality at 20 mg/m2 [7]: 80 to 100%
8 | C[C@H](NC(=O)c1cc(OC2CC2)cc(OC(F)(F)F)c1)c1ncnn1-c1ncc(C#N)s1 [Example I-64] | – | 100 | – | 100 | 100 | –
9 | C[C@H](NC(=O)c1cc(Cl)nc(C(C)(C)C#N)c1)c1ncnn1-c1ncc(C#N)s1 [Example I-71] | – | 100 | – | 100 | 100 | –
10 | C[C@H](NC(=O)c1cc(OC(F)(F)F)cc(C(C)(C)C#N)c1)c1ncnn1-c1ncc(C(=O)N(C)C)s1 [Example I-73] | – | 100 | 100 | 100 | 100 | –
11 | C[C@H](NC(=O)c1cc(Br)cc(C(F)(F)C2CC2)c1)c1ncnn1-c1ncc(C#N)s1 [Example I-53] | – | 100 | – | 100 | – | mortality at 20 mg/m2 [7]: 80 to 100%
12 | C[C@H](NC(=O)c1cc(OCC=C(Cl)Cl)cc(C(F)(F)F)c1)c1ncnn1-c1ccc(C#N)cn1 [Example I-26] | 100 | – | – | 100 | – | –
13 | C[C@H](NC(=O)c1cc(Cl)cc(Oc2ccccc2)c1)c1ncnn1-c1ccc(C#N)cn1 [Example I-7] | 100 | – | – | – | – | pest or weed control at 4 µg/tick [8]: 100%; pest or weed control at 20 µg/tick ([8]; 20 μg/tick injected): 100%
14 | C[C@H](NC(=O)c1cc(Cl)nc(C(C)(C)C#N)c1)c1ncnn1-c1cc(C#N)ncn1 [Example I-75] | – | 100 | – | 100 | 100 | –
15 | C[C@H](NC(=O)c1cc(CC#N)cc(OC(F)(F)F)c1)c1ncnn1-c1ncc(C#N)s1 [Example I-54] | 90 | 100 | – | – | – | –
16 | C[C@H](NC(=O)c1cc(OCC(Cl)=C(Cl)Cl)cc(C(F)(F)F)c1)c1ncnn1-c1ncc(C#N)s1 [Example I-28] | 100 | 100 | – | 100 | – | pest or weed control at 4 µg/tick [8]: 100%
17 | C[C@H](NC(=O)c1cc(OC(F)(F)F)cc(C(C)(C)C#N)c1)c1ncnn1-c1ncc(C#N)s1 [Example I-43, 3-(1-Cyano-1-methyl-ethyl)-N-[(1S)-1-[2-(5-cyanothiazol-2-yl)-1,2,4-triazol-3-yl]ethyl]-5-(trifluoromethoxy)benzamide] | – | 100 | 100 | 100 | 100 | mortality at 100 g/ha [5]: 100%; mortality at 4 mg/m2 [9, 10]: 80 to 100%; mortality at 20 mg/m2 ([9]; surface concentration 20 mg/m^2, 30 minutes exposure): 80 to 100%; mortality at 4 mg/m2 [6, 10]: 80 to 100%; mortality at 20 mg/m2 [6]: 80 to 100%; mortality at 4 mg/m2 [7]: 80 to 100%; mortality at 20 mg/m2 [7]: 80 to 100%
